Converted amounts (≈) assume the structure as drawn. “And” between values parts separate entries of the source, which are not always exact repeats. Equal entries are not always repeated. Where two headings read alike, the source gives them in different places.
Key:
[1] = system: Respiratory Syncytial Virus (RSV); test: TCID50 assay after 1 h incubation of virus with LTX-109 (Example 2); format: cell-based; conditions: for Percentage: decrease in RSV infectivity, compared to PBS control
Method: To test whether 1% LTX-109 (w/v) and 0.1% LTX-109 (w/v) have antiviral activity against RSV, 1×10^5 infectious units of RSV (40 μl) were incubated with four volumes of 1% LTX-109 or 0.1% LTX-109 dissolved in PBS (160 μl) or a PBS (Phosphate-buffered saline) control. The experiment was performed in triplicates.
After 1 hour, the incubation was stopped by adding an excess of cold media, and the formulation was physically separated from the virus through a filter to reduce cytotoxicity on the assay cells. Some cloudiness in the preparation was observed, particularly for the 1% formulation, but no precipitation. Infectious virus was quantified through a serial dilution (a series of ten-fold dilutions) on monolayers of Hep2 cells in microtitre plates (Hep2 cells are mammalian cells capable of displaying a cytopathic effect (CPE) upon viral infection). The starting solution for the serial dilution (i.e. the neat (or undiluted) solution) was obtained by re-suspending the virus that was separated via the filtration step in 1 ml of media. For each dilution of the virus in the dilution series, eight wells of the microtitre plate were tested (i.e. each dilution of virus was applied to eight separate wells, each well containing a Hep2 cell monolayer). Appropriate controls were also performed. […] The TCID50 (TCID50/ml) assay (Tissue Culture Infectious Dose 50 assay) is a type of endpoint dilution assay that is well known in the art and routinely used to quantitatively measure virus titres. TCID50/ml provides a measure of infectious units of virus/ml. “/ml” refers to/ml of the starting solution (i.e. neat/undiluted solution) mentioned above.

[2] = system: Rhinovirus 60, 2268-CV37; test: TCID50 assay after 1 h incubation of virus with 3% LTX-109, stopped by dilution (Example 7); format: cell-based
[3] = system: Mycoplasma pneumoniae
Method: Two library strains of Mycoplasma pneumoniae were used. These strains were stored at GR Micro Ltd. and maintained, with minimal sub-culture, deep frozen at −70° C. as a dense suspension in a high protein matrix of undiluted horse serum.
MIC determination was carried out using a broth microdilution method in Mycoplasma Broth Base (Oxoid Ltd, Hampshire, UK), prepared according to the manufacturer's instructions.

[4] = system: HeLa cells; conditions: 1% LTX-109 (w/v) or 0.25% SDS, after filtration, no virus, dilution showing cytotoxicity
Method: A parallel test where the same procedure was carried out in the absence of virus was included to determine any residual cytotoxic effect of the formulation on the assay cells.

What does the source list for `CC(C)(C)c1cc(C(C)(C)C)c2[nH]c(C(C)(C)C)c(CC(NC(=O)C(N)CCCNC(=N)N)C(=O)NC(CCCNC(=N)N)C(=O)NCCc3ccccc3)c2c1` (stereo not shown) [LTX-109]?
Percentage ([1]; 0.1% LTX-109, 1 h): 99.9% and 99.97%; Percentage ([1]; 1% LTX-109, 1 h): 99.9% and 99.949%; Log ([1]; log of RSV titre after 1 h with 0.1% LTX-109): 1.78; Log ([1]; log of RSV titre after 1 h with 1% LTX-109): 2.20; Log decrease ([2]; Rhinovirus, 3% LTX-109 or 0.25% SDS, 1 hour, compared to PBS control): 1.9 log; Percentage ([2]; decrease in Rhinovirus infectivity, 3% LTX-109 or 0.25% SDS, 1 hour, compared to PBS control): 98.87%; Log ([2]; log of Rhinovirus titre after 1 hour with 3% LTX-109 or 0.25% SDS): 2.3; MIC ([3]; one of the library strains of Mycoplasma pneumoniae): 32 µg/mL (≈ 40.6 µM); MIC ([3]; the other of the library strains of Mycoplasma pneumoniae): 16 µg/mL (≈ 20.3 µM); Cytotoxicity [4]: Neat
